{"source": "paper PMC7434514", "about": "(ChemMedChem, 2020)", "key": {"[1]": {"target": "T1, NDM-1 (Klebsiella pneumoniae, UniProt C7C422)", "experiment": "biochemical", "details": "for Percent Inhibition against NDM-1: meropenem substrate"}, "[2]": {"target": "T1, NDM-1", "type": "binding", "details": "5 μM NDM-1, 200 μM inhibitor; native NDM-1 TM = 55.95±0.06 °C"}, "[3]": {"details": "read-out: Kd for Zn(II) ions; cited from earlier work"}, "[4]": {"target": "T1, NDM-1", "type": "binding", "details": "NDM-1 10 μM, inhibitor 50 μM, approximately 5 min incubation"}, "[5]": {"target": "VIM-2 (Escherichia coli, UniProt Q5U7L7)", "type": "binding", "details": "VIM-2 10 μM, inhibitor 50 μM, approximately 5 min incubation"}, "[6]": {"test_system": "NDM-1", "details": "read-out: IC50 against NDM-1; ref 19e, 20; cited from earlier work"}, "[7]": {"test_system": "NDM-1 expressing Klebsiella pneumoniae", "details": "mouse infected with NDM-1 expressing Klebsiella pneumoniae; ref 19e, 20; cited from earlier work"}, "[8]": {"details": "read-out: Percent Inhibition against NDM-1"}}, "note": "Where “and” joins values, the source holds several entries; their conditions need not be identical. Identical values can stand only once."}
{"compound": "O=C(O)CN(Cc1ccccc1)Cc1nnn[nH]1", "note": "[Compound 17, N-((1H-tetrazol-5-yl)methyl)-N-benzylglycine]", "values": [{"measurement": "Percent Inhibition against NDM-1", "setting": "[1]; compound at 250 μM", "value": "comparable to that of 11"}]}
{"compound": "O=C(O)CN(CC(=O)O)Cc1ccco1", "note": "[Compound 23b, 2,2’-((Furan-2-ylmethyl)azanediyl)diacetic acid]", "values": [{"measurement": "∆Tm", "setting": "[2]", "value": "1.6±0.4", "unit": "°C"}]}
{"compound": "O=C(O)CNCC(=O)O", "note": "[IDA, Iminodiacetic acid]", "values": [{"measurement": "Kd", "setting": "[3]", "value": 32, "unit": "µM"}, {"measurement": "inhibition at 200 µM", "setting": "[1]; [8]", "value": 48, "unit": "%"}]}
{"compound": "O=C(O)CN(CC(=O)O)S(=O)(=O)c1cc2ccccc2s1", "note": "[Compound 21m, 2,2’-((Benzo[b]thiophen-2-ylsulfonyl)azanediyl)diacetic acid]", "values": [{"measurement": "Percent Inhibition against NDM-1", "setting": "[1]; compound at 250 μM", "value": "~ 20%"}]}
{"compound": "O=C(O)CN(CC(=O)O)Cc1ccc(Br)s1", "note": "[Compound 23g, 2,2’-(((5-Bromothiophen-2-yl)methyl)azanediyl)diacetic acid]", "values": [{"measurement": "∆Tm", "setting": "[2]", "value": "3.0±0.3", "unit": "°C"}]}
{"compound": "O=C(O)CN(CC(=O)O)Cc1cccc(-c2ccccc2)c1", "note": "[Compound 21c, 2,2’-(([1,1’-Biphenyl]-3-ylmethyl)azanediyl)diacetic acid]", "values": [{"measurement": "inhibition at 250 µM", "setting": "[1]; [8]", "value": "56 to 76", "unit": "%"}]}
{"compound": "O=C(O)CN(CCc1cccs1)CC(=O)O", "note": "[Compound 23e, 2,2’-((2-(Thiophen-2-yl)ethyl)azanediyl)diacetic acid]", "values": [{"measurement": "Complex observed by native ESI-MS", "setting": "[4]", "value": "2Zn: NDM-1:23e"}, {"measurement": "∆Tm", "setting": "[2]", "value": "1.7±0.2", "unit": "°C"}, {"measurement": "Complex observed by native ESI-MS", "setting": "[5]", "value": "2Zn: VIM-2:23e"}]}
{"compound": "CN(CCC(=O)O)CC(=O)O", "note": "[Compound 13a, 3-((Carboxymethyl)(methyl)amino)propanoic acid]", "values": [{"measurement": "Percent Inhibition against NDM-1", "setting": "[1]; compound at 250 μM", "value": "complete loss of activity"}]}
{"compound": "O=C(O)CN(CCc1ccco1)CC(=O)O", "note": "[Compound 23f, 2,2’-((2-(Furan-2-yl)ethyl)azanediyl)diacetic acid]", "values": [{"measurement": "Complex observed by native ESI-MS", "setting": "[4]", "value": "2Zn: NDM-1:23f"}, {"measurement": "Ki", "setting": "[1]", "value": 2.6, "unit": "µM"}, {"measurement": "fold improvement in inhibitory activity", "setting": "[1]; ethyl-linker (23f) versus methyl-linker (23b)", "value": 2.5, "unit": "fold"}, {"measurement": "∆Tm", "setting": "[2]", "value": "1.5±0.1", "unit": "°C"}, {"measurement": "Complex observed by native ESI-MS", "setting": "[5]", "value": "2Zn: VIM-2:23f"}]}
{"compound": "Cc1ccc(CN(CC(=O)O)CC(=O)O)s1", "note": "[Compound 23c, 2,2’-(((5-Methylthiophen-2-yl)methyl)azanediyl)diacetic acid]", "values": [{"measurement": "Complex observed by native ESI-MS", "setting": "[4]", "value": "2Zn: NDM-1:23c"}, {"measurement": "Complex observed by native ESI-MS", "setting": "[5]", "value": "2Zn: VIM-2:23c"}]}
{"compound": "O=C(O)CN(CC(=O)O)Cc1ccsc1", "note": "[Compound 21h, 2,2’-((Thiophen-3-ylmethyl)azanediyl)diacetic acid]", "values": [{"measurement": "inhibition at 250 µM", "setting": "[1]; [8]", "value": 64, "unit": "%"}]}
{"compound": "O=C(O)CN(CCP(=O)(O)O)Cc1ccccc1", "note": "[Compound 15, N-Benzyl-N-(2-phosphonoethyl)glycine]", "values": [{"measurement": "Percent Inhibition against NDM-1", "setting": "[1]; compound at 250 μM", "value": "no inhibition"}]}
{"compound": "O=C(O)CN(CC(=O)O)Cc1cccs1", "note": "[Compound 23a, 2,2’-((Thiophen-2-ylmethyl)azanediyl)diacetic acid]", "values": [{"measurement": "∆Tm", "setting": "[2]", "value": "3.1±0.1", "unit": "°C"}]}
{"compound": "O=C(O)CN(CC(=O)O)Cc1ccccc1", "note": "[Compound 11]", "values": [{"measurement": "Percent Inhibition against NDM-1", "setting": "[1]; compound at 250 μM", "value": 65, "unit": "%"}]}
{"compound": "O=C(O)CN(CC(=O)O)S(=O)(=O)c1cccs1", "note": "[Compound 21l, 2,2’-((Thiophen-2-ylsulfonyl)azanediyl)diacetic acid]", "values": [{"measurement": "Percent Inhibition against NDM-1", "setting": "[1]; compound at 250 μM", "value": "~ 20%"}]}
{"compound": "CN(CC(=O)O)CC(=O)O", "note": "[Compound 1]", "values": [{"measurement": "Complex observed by native ESI-MS", "setting": "[4]", "value": "2Zn: NDM-1:1"}, {"measurement": "Percent Inhibition against NDM-1", "setting": "[1]; compound at 200 μM", "value": 80, "unit": "%"}, {"measurement": "Percent Inhibition against NDM-1", "setting": "[1]; compound at 250 μM", "value": 90, "unit": "%"}, {"measurement": "∆Tm", "setting": "[2]", "value": "1.9±0.2", "unit": "°C"}, {"measurement": "Complex observed by native ESI-MS", "setting": "[5]", "value": "2Zn: VIM-2:1"}]}
{"compound": "O=C(O)CN(CC(=O)O)Cc1ccc(-c2ccccc2)cc1", "note": "[Compound 21b, 2,2’-(([1,1’-Biphenyl]-4-ylmethyl)azanediyl)diacetic acid]", "values": [{"measurement": "inhibition at 250 µM", "setting": "[1]; [8]", "value": "56 to 76", "unit": "%"}]}
{"compound": "O=C(O)CN(CCN(CC(=O)O)CC(=O)O)CC(=O)O", "note": "[EDTA, reference compound]", "values": [{"measurement": "Complex observed by native ESI-MS", "setting": "[4]", "value": "metal free NDM-1"}]}
{"compound": "O=C(O)CN(CC(=O)O)S(=O)(=O)Cc1ccccc1", "note": "[Compound 21k, 2,2’-((Benzylsulfonyl)azanediyl)diacetic acid]", "values": [{"measurement": "Percent Inhibition against NDM-1", "setting": "[1]; compound at 250 μM", "value": "complete loss of activity"}]}
{"compound": "O=C(O)CN(CC(=O)O)Cc1ccoc1", "note": "[Compound 21i, 2,2’-((Furan-3-ylmethyl)azanediyl)diacetic acid]", "values": [{"measurement": "inhibition at 250 µM", "setting": "[1]; [8]", "value": "~99", "unit": "%"}, {"measurement": "∆Tm", "setting": "[2]", "value": "3.4±0.3", "unit": "°C"}]}
{"compound": "Cc1ccc(CN(CC(=O)O)CC(=O)O)o1", "note": "[Compound 23d, 2,2’-(((5-Methylfuran-2-yl)methyl)azanediyl)diacetic acid]", "values": [{"measurement": "Complex observed by native ESI-MS", "setting": "[4]", "value": "2Zn: NDM-1:23d"}, {"measurement": "∆Tm", "setting": "[2]", "value": "3.4±0.2", "unit": "°C"}, {"measurement": "Complex observed by native ESI-MS", "setting": "[5]", "value": "2Zn: VIM-2:23d"}]}
{"compound": "N[C@H](CN[C@H](CN[C@@H](CC(=O)O)C(=O)O)C(=O)O)C(=O)O", "note": "[AMA, Aspergillomarasmine A]", "values": [{"measurement": "IC50", "setting": "[6]", "value": "4 to 7", "unit": "µM"}, {"measurement": "ability to restore meropenem activity in vivo", "setting": "[7]", "value": "restore meropenem activity"}]}
{"compound": "O=C(O)c1cccc(C(=O)O)n1", "note": "[DPA, dipicolinic acid, reference compound]", "values": [{"measurement": "Complex observed by native ESI-MS", "setting": "[4]", "value": "0Zn: NDM-1 and 1Zn: NDM-1 and 2Zn: NDM-1"}, {"measurement": "∆Tm", "setting": "[2]", "value": "−14.5±0.2", "unit": "°C"}, {"measurement": "Complex observed by native ESI-MS", "setting": "[5]", "value": "0Zn: VIM-2:DPA"}]}
{"compound": "O=C(O)CN(CC(=O)O)S(=O)(=O)c1ccccc1", "note": "[Compound 21j, 2,2’-((Phenylsulfonyl)azanediyl)diacetic acid]", "values": [{"measurement": "Percent Inhibition against NDM-1", "setting": "[1]; compound at 250 μM", "value": "complete loss of activity"}]}
{"compound": "O=C(O)CCN(CC(=O)O)Cc1ccccc1", "note": "[Compound 13b, 3-(Benzyl(carboxymethyl)amino)propanoic acid]", "values": [{"measurement": "Percent Inhibition against NDM-1", "setting": "[1]; compound at 250 μM", "value": "complete loss of activity"}]}
{"compound": "O=C(O)CN(CCc1ccccc1)CC(=O)O", "note": "[Compound 21a, 2,2’-(Phenethylazanediyl)diacetic acid]", "values": [{"measurement": "inhibition at 250 µM", "setting": "[1]; [8]", "value": "56 to 76", "unit": "%"}]}
